Source: US20260266848A1, “COMPOSITIONS AND METHODS FOR DIAGNOSING AND TREATING DYSTONIA” (Duke University, priority 2023, published 2026)

Tests used:
[1] = tested on: DYT-TOR1A MEF EVs; test: Quantitative LC-MS/MS proteomics of EVs from drug-treated DYT-TOR1A MEF cultures (ritonavir, salubrinal); format: cell-based, mouse; design: key to RTV Corrective Direction / RTV Corrective Direction, Grwd1 / RTV Corrective Direction, Srrm2 / RTV Corrective Direction, Rbm17 / RTV Corrective Direction, Dcaf8 / RTV Corrective Direction, Edil3 / RTV Corrective Direction, Timp3 / RTV Corrective Direction, Heatr3 / RTV Corrective Direction, Brd4 / RTV Corrective Direction, P3h4 / RTV Corrective Direction, Pacsin3 / RTV Corrective Direction, Naa50 / RTV Corrective Direction, Lpar6 / RTV Corrective Direction, Ndrg1 / RTV Corrective Direction, Kntc1 / RTV Corrective Direction, Cdk11b / RTV Corrective Direction, Sumo1 / RTV Corrective Direction, Lsm4 / RTV Corrective Direction, Hmga2 / RTV Corrective Direction, Cstf1 / RTV Corrective Direction, Tes / RTV Corrective Direction, Sbno1 / RTV Corrective Direction, Unc119b / RTV Corrective Direction, Cfdp1 / RTV Corrective Direction, Sec61b: YES = protein abundance effect opposite to DYT/WT; details: EV protein abundance; for RTV Corrective Direction: DYT + RTV (ritonavir) vs DYT, direction compared with DYT/WT; for DYT + RTV/DYT Cohen's d: ritonavir (RTV)-treated DYT vs DYT
[2] = tested on: WT MEF EVs; test: Quantitative LC-MS/MS proteomics of EVs from ISRIB-treated WT MEF cultures; format: cell-based, mouse; design: key to ISRIB and DYT Parallel Direction / ISRIB and DYT Parallel Direction, Ctdsp1 / ISRIB and DYT Parallel Direction, Pcdh19 / ISRIB and DYT Parallel Direction, Tspan7 / ISRIB and DYT Parallel Direction, Myo1e / ISRIB and DYT Parallel Direction, Plpp3 / ISRIB and DYT Parallel Direction, Sh3bp4 / ISRIB and DYT Parallel Direction, Dnajc7 / ISRIB and DYT Parallel Direction, Drg1 / ISRIB and DYT Parallel Direction, Maea: YES = protein abundance effect similar to DYT/WT; details: EV protein abundance; for WT + ISRIB/WT Cohen's d: ISRIB-treated WT vs WT; for ISRIB and DYT Parallel Direction: WT + ISRIB vs WT, direction compared with DYT/WT

| Substance | RTV Corrective Direction [1] | DYT + RTV/DYT Cohen's d [1] | WT + ISRIB/WT Cohen's d [2] | ISRIB and DYT Parallel Direction [2] |
| --- | --- | --- | --- | --- |
| Pgp | YES | 2.28 | −0.86 | YES |
| Gmppb | YES | 5.38 | −2.41 | YES |
| Cul3 | YES | 2.36 | −0.66 | YES |
| Itpa | YES | 12.80 | −1.25 | YES |
